Positions of bridges follow the written chain, without caps; N, C: chain ends. Non-standard residues stand in square brackets, D forms with d. Residues, ends and D or L forms follow the SMILES beside them. *: point of attachment. Phe(4-COOH) = N[C@@H](Cc1ccc(C(=O)O)cc1)C(=O)O; Bip = N[C@@H](Cc1ccc(-c2ccccc2)cc1)C(=O)O; NMeF = CN[C@@H](Cc1ccccc1)C(=O)O; Carboxymethyl = O=C(O)C*; NMeA = CN[C@@H](C)C(=O)O; Orn = NCCC[C@H](N)C(=O)O; Dab = NCC[C@H](N)C(=O)O
Target: T1, human PD-1 (Jurkat-PD-1 cells) / PE-labeled human PD-L1-Ig (Homo sapiens, UniProt Q15116)
T1 construct: expressed in transfected cells; host or cells: Jurkat cell line over-expressing human PD-1
Test: Jurkat-PD-1 Cell Binding High-Content Screening Assay (CBA); Jurkat hPD1-PDL1 assay
Settings: Jurkat cell line over-expressing human PD-1; PE-labeled PD-L1-Ig 20 nM final; compound incubated 2 hours at 37° C.; read-out: Jurkat HPD1-PDL1 IC50
Summary of the method: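 Cell binding by imaging: Jurkat line stably over-expressing human PD-1, compound pre-exposure 2 h at 37° C, PE-conjugated PD-L1-Ig 20 nM final, medium DMEM containing 10% FCS.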

T1 sequence (Q15116 25-288): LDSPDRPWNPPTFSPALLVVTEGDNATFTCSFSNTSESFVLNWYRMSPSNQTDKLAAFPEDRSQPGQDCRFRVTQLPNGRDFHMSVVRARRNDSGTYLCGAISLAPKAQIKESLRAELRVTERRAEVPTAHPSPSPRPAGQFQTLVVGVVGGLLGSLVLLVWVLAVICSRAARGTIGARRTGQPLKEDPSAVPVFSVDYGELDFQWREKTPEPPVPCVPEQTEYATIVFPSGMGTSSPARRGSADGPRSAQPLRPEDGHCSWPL

Row | IC50 | Compound
1 | 0.75 µM | CC(C)C[C@@H]1NC(=O)[C@H](CCCNC(=N)N)NC(=O)[C@H](Cc2ccccc2)N(C)C(=O)[C@H](C)N(C)C(=O)[C@H](CCC(=O)O)NC(=O)[C@H](Cc2ccc(-c3ccccc3)cc2)NC(=O)[C@H](C(C)C)NC(=O)[C@H](Cc2c[nH]c3ccccc23)NC(=O)[C@H](CC(=O)O)NC(=O)[C@H](Cc2ccc(O)cc2)NC(=O)[C@H](CCC(N)=O)NC(=O)CSC[C@@H](C(=O)NCC(N)=O)NC(=O)[C@H](CO)NC(=O)[C@H](C(C)C)NC1=O [Example 1286] ({CH2CO}-QYDWV[Bip]E[NMeA][NMeF]RLVSCG-NH2; thioether N-14)
2 | 0.13 µM | CC(C)C[C@@H]1NC(=O)CSC[C@@H](C(=O)NCC(N)=O)NC(=O)[C@H](CO)NC(=O)[C@H](C(C)C)NC(=O)[C@H](CC(C)C)NC(=O)[C@H](CCCNC(=N)N)NC(=O)[C@H](Cc2ccccc2)N(C)C(=O)[C@H](C)N(C)C(=O)[C@H](CCC(=O)O)NC(=O)[C@H](Cc2ccc(-c3ccccc3)cc2)NC(=O)[C@H](C(C)C)NC(=O)[C@H](Cc2c[nH]c3ccccc23)NC(=O)[C@H](CC(=O)O)NC(=O)[C@H](Cc2ccc(O)cc2)NC1=O [Example 1287] ({CH2CO}-LYDWV[Bip]E[NMeA][NMeF]RLVSCG-NH2; thioether N-14)
3 | 0.08 µM | CC(C)C[C@@H]1NC(=O)[C@H](CCCNC(=N)N)NC(=O)[C@H](Cc2ccccc2)N(C)C(=O)[C@H](C)N(C)C(=O)[C@H](CCC(=O)O)NC(=O)[C@H](Cc2ccc(-c3ccccc3)cc2)NC(=O)[C@H](C(C)C)NC(=O)[C@H](Cc2c[nH]c3ccccc23)NC(=O)[C@H](CC(=O)O)NC(=O)[C@H](Cc2ccc(O)cc2)NC(=O)[C@H](Cc2cnc[nH]2)NC(=O)CSC[C@@H](C(=O)NCC(N)=O)NC(=O)[C@H](CO)NC(=O)[C@H](C(C)C)NC1=O [Example 1288] ({CH2CO}-HYDWV[Bip]E[NMeA][NMeF]RLVSCG-NH2; thioether N-14)
4 | 0.17 µM | CC(C)C[C@@H]1NC(=O)CSC[C@@H](C(=O)NCC(N)=O)NC(=O)[C@H](CO)NC(=O)[C@H](C(C)C)NC(=O)[C@H](CC(C)C)NC(=O)[C@H](CCN)NC(=O)[C@H](Cc2ccccc2)N(C)C(=O)[C@H](C)N(C)C(=O)[C@H](CCCNC(=N)N)NC(=O)[C@H](Cc2ccc(-c3ccccc3)cc2)NC(=O)[C@H](C(C)C)NC(=O)[C@H](Cc2c[nH]c3ccccc23)NC(=O)[C@H](CC(=O)O)NC(=O)[C@H](Cc2ccc(O)cc2)NC1=O [Example 1289] ({CH2CO}-LYDWV[Bip]R[NMeA][NMeF][Dab]LVSCG-NH2; thioether N-14)
5 | 0.14 µM | CC(C)C[C@@H]1NC(=O)CSC[C@@H](C(=O)NCC(N)=O)NC(=O)[C@H](CO)NC(=O)[C@H](C(C)C)NC(=O)[C@H](CC(C)C)NC(=O)[C@H](CCCNC(=N)N)NC(=O)[C@H](Cc2ccccc2)N(C)C(=O)[C@H](C)N(C)C(=O)[C@H](CCCN)NC(=O)[C@H](Cc2ccc(-c3ccccc3)cc2)NC(=O)[C@H](C(C)C)NC(=O)[C@H](Cc2c[nH]c3ccccc23)NC(=O)[C@H](CC(=O)O)NC(=O)[C@H](Cc2ccc(O)cc2)NC1=O [Example 1290] ({CH2CO}-LYDWV[Bip][Orn][NMeA][NMeF]RLVSCG-NH2; thioether N-14)
6 | 0.09 µM | CC(C)C[C@@H]1NC(=O)[C@H](CCCNC(=N)N)NC(=O)[C@H](Cc2ccccc2)N(C)C(=O)[C@H](C)N(C)C(=O)[C@H](CCCNC(=N)N)NC(=O)[C@H](Cc2ccc(-c3ccccc3)cc2)NC(=O)[C@H](C(C)C)NC(=O)[C@H](Cc2c[nH]c3ccccc23)NC(=O)[C@H](CC(=O)O)NC(=O)[C@H](Cc2ccc(C(=O)O)cc2)NC(=O)[C@H](Cc2cnc[nH]2)NC(=O)CSC[C@@H](C(=O)NCC(N)=O)NC(=O)[C@H](CO)NC(=O)[C@H](C(C)C)NC1=O [Example 1291] ({CH2CO}-H[Phe(4-COOH)]DWV[Bip]R[NMeA][NMeF]RLVSCG-NH2; thioether N-14)
7 | 0.09 µM | CC(C)C[C@@H]1NC(=O)[C@H](CCCNC(=N)N)NC(=O)[C@H](Cc2ccccc2)N(C)C(=O)[C@H](C)N(C)C(=O)[C@H](CCCN)NC(=O)[C@H](Cc2ccc(-c3ccccc3)cc2)NC(=O)[C@H](C(C)C)NC(=O)[C@H](Cc2c[nH]c3ccccc23)NC(=O)[C@H](CC(=O)O)NC(=O)[C@H](Cc2ccc(O)cc2)NC(=O)[C@H](Cc2cnc[nH]2)NC(=O)CSC[C@@H](C(=O)NCC(N)=O)NC(=O)[C@H](CO)NC(=O)[C@H](C(C)C)NC1=O [Example 1292] ({CH2CO}-HYDWV[Bip][Orn][NMeA][NMeF]RLVSCG-NH2; thioether N-14)
8 | 0.14 µM | CC(C)C[C@@H]1NC(=O)[C@H](CCCNC(=N)N)NC(=O)[C@H](Cc2ccccc2)N(C)C(=O)[C@H](C)N(C)C(=O)[C@H](CCCN)NC(=O)[C@H](Cc2ccc(-c3ccccc3)cc2)NC(=O)[C@H](C(C)C)NC(=O)[C@H](Cc2c[nH]c3ccccc23)NC(=O)[C@H](CC(=O)O)NC(=O)[C@H](Cc2ccc(O)cc2)NC(=O)[C@H](CCC(N)=O)NC(=O)CSC[C@@H](C(=O)NCC(N)=O)NC(=O)[C@H](CO)NC(=O)[C@H](C(C)C)NC1=O [Example 1294] ({CH2CO}-QYDWV[Bip][Orn][NMeA][NMeF]RLVSCG-NH2; thioether N-14)
9 | 0.21 µM | CC(C)C[C@@H]1NC(=O)CSC[C@@H](C(=O)NCC(N)=O)NC(=O)[C@H](CO)NC(=O)[C@H](C(C)C)NC(=O)[C@H](CC(C)C)NC(=O)[C@H](CCCNC(=N)N)NC(=O)[C@H](Cc2ccccc2)N(C)C(=O)[C@H](C)N(C)C(=O)[C@H](CCCNC(=N)N)NC(=O)[C@H](Cc2ccc(-c3ccccc3)cc2)NC(=O)[C@H](C(C)C)NC(=O)[C@H](Cc2c[nH]c3ccccc23)NC(=O)[C@H](CC(=O)O)NC(=O)[C@H](Cc2ccc(C(=O)O)cc2)NC1=O [Example 1295] ({CH2CO}-L[Phe(4-COOH)]DWV[Bip]R[NMeA][NMeF]RLVSCG-NH2; thioether N-14)
10 | 0.14 µM | CC(C)C[C@@H]1NC(=O)[C@H](CCCNC(=N)N)NC(=O)[C@H](Cc2ccccc2)N(C)C(=O)[C@H](C)N(C)C(=O)[C@H](CCCNC(=N)N)NC(=O)[C@H](Cc2ccc(-c3ccccc3)cc2)NC(=O)[C@H](C(C)C)NC(=O)[C@H](Cc2c[nH]c3ccccc23)NC(=O)[C@H](CC(=O)O)NC(=O)[C@H](Cc2ccc(O)cc2)NC(=O)[C@H](CCC(N)=O)NC(=O)CSC[C@@H](C(=O)N[C@@H](C)C(N)=O)NC(=O)[C@H](CO)NC(=O)[C@H](C(C)C)NC1=O [Example 1296] ({CH2CO}-QYDWV[Bip]R[NMeA][NMeF]RLVSCA-NH2; thioether N-14)
11 | 0.42 µM | CC(C)C[C@@H]1NC(=O)[C@H](CCCNC(=N)N)NC(=O)[C@H](Cc2ccccc2)N(C)C(=O)[C@H](C)N(C)C(=O)[C@H](CCCNC(=N)N)NC(=O)[C@H](Cc2ccc(-c3ccccc3)cc2)NC(=O)[C@H](C(C)C)NC(=O)[C@H](Cc2c[nH]c3ccccc23)NC(=O)[C@H](CC(=O)O)NC(=O)[C@H](Cc2ccc(C(=O)O)cc2)NC(=O)[C@H](CCC(N)=O)NC(=O)CSC[C@@H](C(=O)NCC(N)=O)NC(=O)[C@H](CO)NC(=O)[C@H](C(C)C)NC1=O [Example 1297] ({CH2CO}-Q[Phe(4-COOH)]DWV[Bip]R[NMeA][NMeF]RLVSCG-NH2; thioether N-14)
12 | 0.12 µM | CC(C)C[C@@H]1NC(=O)[C@H](CCCNC(=N)N)NC(=O)[C@H](Cc2ccccc2)N(C)C(=O)[C@H](C)N(C)C(=O)[C@H](CCCNC(=N)N)NC(=O)[C@H](Cc2ccc(-c3ccccc3)cc2)NC(=O)[C@H](C(C)C)NC(=O)[C@H](Cc2c[nH]c3ccccc23)NC(=O)[C@H](CC(=O)O)NC(=O)[C@H](Cc2ccc(OCC(=O)O)cc2)NC(=O)[C@H](Cc2ccc(C(=O)O)cc2)NC(=O)CSC[C@@H](C(=O)NCC(N)=O)NC(=O)[C@H](CO)NC(=O)[C@H](C(C)C)NC1=O [Example 1300] ({CH2CO}-[Phe(4-COOH)]Y(Carboxymethyl)DWV[Bip]R[NMeA][NMeF]RLVSCG-NH2; thioether N-14)
13 | 0.15 µM | CC(C)C[C@@H]1NC(=O)[C@H](CCCNC(=N)N)NC(=O)[C@H](Cc2ccccc2)N(C)C(=O)[C@H](C)N(C)C(=O)[C@H](CCCNC(=N)N)NC(=O)[C@H](Cc2ccc(-c3ccccc3)cc2)NC(=O)[C@H](C(C)C)NC(=O)[C@H](Cc2c[nH]c3ccccc23)NC(=O)[C@H](CC(=O)O)NC(=O)[C@H](Cc2ccc(O)cc2)NC(=O)[C@H](CC(N)=O)NC(=O)CSC[C@@H](C(=O)N[C@@H](C)C(N)=O)NC(=O)[C@H](CO)NC(=O)[C@H](C(C)C)NC1=O [Example 1301] ({CH2CO}-NYDWV[Bip]R[NMeA][NMeF]RLVSCA-NH2; thioether N-14)
14 | 0.35 µM | CC(C)C[C@@H]1NC(=O)[C@H](CCCNC(=N)N)NC(=O)[C@H](Cc2ccccc2)N(C)C(=O)[C@H](C)N(C)C(=O)[C@H](CCCNC(=N)N)NC(=O)[C@H](Cc2ccc(-c3ccccc3)cc2)NC(=O)[C@H](C(C)C)NC(=O)[C@H](Cc2c[nH]c3ccccc23)NC(=O)[C@H](CC(=O)O)NC(=O)[C@H](Cc2ccc(O)cc2)NC(=O)[C@H](Cc2cnc[nH]2)NC(=O)CSC[C@@H](C(=O)N[C@@H](C)C(N)=O)NC(=O)[C@H](CO)NC(=O)[C@H](C(C)C)NC1=O [Example 1302] ({CH2CO}-HYDWV[Bip]R[NMeA][NMeF]RLVSCA-NH2; thioether N-14)
15 | 0.07 µM | CC(C)C[C@@H]1NC(=O)[C@H](CCN)NC(=O)[C@H](Cc2ccccc2)N(C)C(=O)[C@H](C)N(C)C(=O)[C@H](CCCNC(=N)N)NC(=O)[C@H](Cc2ccc(-c3ccccc3)cc2)NC(=O)[C@H](C(C)C)NC(=O)[C@H](Cc2c[nH]c3ccccc23)NC(=O)[C@H](CC(=O)O)NC(=O)[C@H](Cc2ccc(O)cc2)NC(=O)[C@H](CC(N)=O)NC(=O)CSC[C@@H](C(=O)N[C@@H](C)C(N)=O)NC(=O)[C@H](CO)NC(=O)[C@H](C(C)C)NC1=O [Example 1303] ({CH2CO}-NYDWV[Bip]R[NMeA][NMeF][Dab]LVSCA-NH2; thioether N-14)

From patent US20240360178A1, “MACROCYCLIC IMMUNOMODULATORS” (Bristol-Myers Squibb Company, priority 2021, published 2024)
